Measurements from patent US8637050B2, “Peptide vaccines against group A streptococci” (The United States of America, as represented by the …, priority 2001, dated 2014).
No end group written: not given here.

Legend:
[1] = tested on: anti-M protein antibodies in mouse sera; assay: ELISA of sera of mice immunized s.c. with peptide in alum (immunogenicity); format: in vivo, mice (Swiss Webster)
Method: (§1) Levels of anti-M protein antibodies in mouse sera were determined by an enzyme-linked immunosorbent assay (ELISA) using either synthetic peptides or whole M protein as antigen. Microtiter plates (DYNEX Immulon 2 HB) were coated with 10 μg/ml antigen in 10 mM phosphate-buffered saline (PBS) at 4° C. overnight. Plates were rinsed three times with wash buffer (0.05% Tween 20 in 10 mM PBS, pH 7.2) and blocked with 1% BSA in PBS for one hour at 37° C. The appropriate test sera were applied at a starting dilution of 1:1000 and serially diluted two fold down the plate in PBS. Plates were incubated at 37° C. for 30 minutes and subsequently rinsed three times. Goat anti-rabbit or goat anti-mouse Ig-peroxidase conjugate diluted 1:10,000 in PBS was added to all wells and incubated for two hours at 37° C. Plates were rinsed three times with wash buffer and freshly prepared TMB peroxidase (Kirkegaard and Perry Laboratories) was added. Reactions were quenched with 0.18 M H2SO4 after 30 minutes at room temperature and OD450 was measured with a Labsystems Multiskan plate reader using Ascent software. ELISA titers are expressed as the reciprocal of the last dilution which gave a reading OD450>0.10.
(§2) Mice (6 week old female Swiss Webster, Harley-Sprague) were immunized subcutaneously (s.c.) with either the peptide in alum or alum alone for control groups. Peptides were rotated in the alum mixture for 2 hours at 4° C. and stored at 4° C. overnight prior to use.

[2] = tested on: rabbit sera prepared against whole M protein; assay: ELISA: peptide recognition by anti-M protein rabbit sera; format: binding
Method: Overlapping peptides representing each M type were assessed for their immunogenicity using ELISA and dot-immunoblot.
as §1
The immunoreactivity of several synthetic peptides was determined by ELISA using rabbit sera prepared against whole M protein. The synthetic peptides are representative of relatively small portions of the M protein N-terminus; therefore, it was advantageous to determine if the epitopes contained within particular peptides were immunoreactive with sera prepared against whole M protein. It was shown that the whole anti-M protein rabbit sera of the respective serotypes could bind to each of the synthetic peptides within that serotype. However, some peptides were more highly immunoreactive than others, thus being better suited for use in the animal studies.

GAS M type M3 = assay: Opsonophagocytosis / bactericidal activity in vitro, GAS M type M3; format: cell-based, Group A streptococci
Method: (§3) Opsonophagocytosis assays were performed as previously described in Lancefield, R. C., Persistence of type-specific antibodies in man following infection with group A streptococci, 1959, J. Immunol., 89:307. Briefly, diluted serum (50 μl) was added to mid-log phase GAS (10^3 CFU) in Todd-Hewitt broth (50 μl) and whole, heparinized blood (500 μl) from a nonopsonic human donor. Mixtures were briefly vortexed and placed at 37° C. in a shaker for 3 hours. Dilutions were then plated on trypticase soy agar plates (5% sheep blood) to quantitate viable organisms. The % killing is expressed as [(CFU control-CFU test)/CFU control]×100.
(§4) Some of the peptides tested in the previous examples were tested for cross-type protection using the methods described above. […] The peptide tested and serotype against which it was tested is indicated.

GAS = assay: Opsonophagocytosis assay in vitro with sera of immunized mice; format: cell-based, Group A streptococci; details: human whole blood, 3 hours
Method: as §3
Each of the sera tested positive in the assay and was able to reduce the amount of viable bacteria relative to controls.

GAS M type M43 = assay: Opsonophagocytosis / bactericidal activity in vitro, heterologous GAS M type M43; format: cell-based, Group A streptococci
Method: as §3, §4

streptococci (GAS) = assay: Nasopharyngeal colonization challenge in vaccinated mice; format: in vivo; details: vaccinated mice relative to alum-only control mice; nasal wash 24 hours after 10^4 CFU challenge
Method: as §2
Mice were challenged intranasally one week after the final booster injection was administered. Prior to being challenged, mice were anesthetized with a ketamine/xylazine mixture. Mice were then given 10^4-10^5 CFU (10 μl) of streptococci intranasally via a microliter pipette. They were sacrificed 24 hours after the challenge and the nasopharyngeal passages were washed with approximately 100 μl physiological saline which was collected and immediately placed on ice. Dilutions of the wash were then plated on trypticase soy agar plates (5% sheep blood) and incubated at 37° C. for 18 hours to quantitate viable organisms. Nasopharyngeal colonization in immunized mice was compared to non-immunized controls. Statistical analysis of the NP data was accomplished using the t-test and rank sum test.
Nasopharyngeal (NP) colonization challenge experiments were performed on mice vaccinated (s.c.) with either M3-1 or M3-2 peptide in alum in comparison to control animals which received alum only. The nasopharyngeal colonization challenge was performed by doing a nasal wash 24 hours after challenge. […]

Row | Sequence | immunoreactivity by ELISA using rabbit sera prepared against whole M protein [2] | also measured
1 | CAEKQRLEDLGQKFERLKQRS [Peptide M12-2] | confirmed | ELISA (elicitation of antibodies) [1]: yes (weak)
2 | CDARSVNGEFPRHVKLKNEIE [Peptide M3-1] | confirmed | reduction of M3 type bacteria (GAS M type M3; in vitro versus control): significantly reduce; % CFU reduction (GAS M type M3; in vitro, GAS M type M3): 70-90%; Opsono (in vitro) (GAS): opsonophagocytize bacteria more effectively and yes; ELISA (elicitation of antibodies) [1]: yes; reduction of M43 type bacteria (GAS M type M43; in vitro versus control): significantly reduce; % CFU reduction (GAS M type M43; in vitro, heterologous GAS M type M43): 80-90%; Reduction of colonization (streptococci (GAS)): 87%
3 | CIQNIRLRHENKDLKARLENA [Peptide M1-2] | confirmed | ELISA (elicitation of antibodies) [1]: no
4 | CLDQVTQLYNKHNSNYQQYSA [Peptide M3-4] | confirmed | ELISA (elicitation of antibodies) [1]: no
5 | CLDQVTQLYTKHNSNYQQYSA [Peptide M3-5] | confirmed | –
6 | CLEDLGQKFERLKQRSELYLQ [Peptide M12-3] | confirmed | ELISA (elicitation of antibodies) [1]: no
7 | CLEEERGEHLDKIDELKEELK [Peptide M89-8] | confirmed | –
8 | CLNKLDKVEEEHKKDHEQLEK [Peptide M77-5] | confirmed | –
9 | CLNQVTQLHTKHNSNYQQYNA [Peptide M3-8] | confirmed | –
10 | CLNQVTQLYTKHNSNYQQYNA [Peptide M3-6] | confirmed | –
11 | CLRQKEENDKLKLEKKGLETE [Peptide M43-4] | confirmed | –
12 | CNDELRENYRRTLDKFNTEQ [Peptide M75-3] | confirmed | –
13 | CNENKSLRRERDNYLNYLYEK [Peptide M59-3] | confirmed | –
14 | CNGDGNPREVIEDLAANNPAIQ [Peptide M1-1] | confirmed | –
15 | CNGDGNPREVIEDLAANNPAME [Peptide M1-4] | – | ELISA (elicitation of antibodies) [1]: no; immunoreactivity of peptide with anti-M protein rabbit sera (ELISA) ([2]; rabbit sera against whole M protein of the respective serotype): highest reactivity
16 | CNGDGNPREVIEDLAANNPVIQ [Peptide M1-6] | confirmed | –
17 | CNGDGNPRVVIEDLAANNPAIQ [Peptide M1-7] | confirmed | –
18 | CNHQLTVENKKLKTDKEQLTKE [Peptide M18-6] | confirmed | –
19 | CNSKNPAPAPASAVPVKKEATK [st2967-1] | confirmed | –

Row | Sequence | immunoreactivity by ELISA using rabbit sera prepared against whole M protein [2] | also measured
20 | CNSKNPAPAPAVPVKKEATKL [st2967-4] | confirmed | –
21 | CNSKNPAPAVPVKKEATKLSE [st2967-5] | confirmed | –
22 | CNSKNPVPVKKEAKLSEAELHDK [Peptide M2-1] | confirmed | –
23 | CNSMLQANNDKLTTENKNLTD [Peptide M6-5] | confirmed | –
24 | CNTLNTLTDENEKLREELQQ [Peptide M22-4] | confirmed | –
25 | CQAQEEALRDVLNNTPHNQLRD [Peptide M41-3] | confirmed | –
26 | CQELEEGKAELFDKLEKVEEE [Peptide M73-6] | confirmed | –
27 | CQHKNNALTSENESLRREKDR [Peptide M94-2] | confirmed | –
28 | CQLRDPYAGAFRRNNELEKIIQE [Peptide M41-5] | confirmed | –
29 | CQLYTKHIYTKHNSNYQQYNAQ [Peptide M3-10] | confirmed | –
30 | CQRAKAALDKYELENHDLKTKN [Peptide M5-4] | confirmed | –
31 | CRATADNKDELIKRANDYEIQ [Peptide M18-2] | confirmed | –
32 | CRATADNKDELIKRANGYEIQ [Peptide M18-4] | confirmed | –
33 | CRDITEAGVSKFWKSKFDAEQN [Peptide M82-2] | confirmed | –
34 | CRENYRRTLDKFNTEQGKTTR [Peptide M75-5] | confirmed | –
35 | CREVTNELTASMWKAQADSAK [Peptide M58-2] | confirmed | –
36 | CRGTVENPDKARELLNKYDVEN [Peptide M6-2] | confirmed | –
37 | CRLAQAQEEALRDVLNNTPHN [Peptide M41-2] | confirmed | –
38 | CRREEKDRYLYEKEELEKKNK [Peptide M94-4] | confirmed | –

Row | Sequence | immunoreactivity by ELISA using rabbit sera prepared against whole M protein [2] | also measured
39 | CRRERDNYLNYLYEKEELEKK [Peptide M59-4] | confirmed | –
40 | CRSDARSVNGEFPRHVKLKNE [Peptide M3-9] | confirmed | –
41 | CRSVSTNSGSVSTPYNNLLNE [Peptide M92-2] | confirmed | –
42 | CRVFPRGTVENPDKARELLNK [Peptide M6-1] | confirmed | –
43 | CRVPGTLWLRQKEENDKLKLEK [Peptide M43-3] | confirmed | –
44 | CSDASLHNRITDLEEEREKLLNK [Peptide M77-2] | confirmed | –
45 | CSELYLQQYYDNKSNGYKGDW [Peptide M12-7] | confirmed | –
46 | CSVKDNEKELHNKIADLEEER [Peptide M89-3] | confirmed | –
47 | CTEHEKLRDEYYTLIDAKEEE [Peptide M28-5] | confirmed | –
48 | CTEHEKLRDEYYTLIDAKLEEK [Peptide M28-4] | confirmed | –
49 | CTEVKAAGQSAPKGTNVSADL [Peptide M11-4] | confirmed | –
50 | CTQLYTKHNSNYQQYNAQAGR [Peptide M3-11] | confirmed | –
51 | CTVTRGTINDPQRAKEALDKYE [Peptide M5-1] | confirmed | –
52 | CTVTRGTINDPQRAKEVIDKYE [Peptide M5-7] | confirmed | –
53 | CTVTRGTVNDPQRAKEALDKYE [Peptide M5-5] | confirmed | –
54 | CTVTRGTVNDPQRAKETLDKYE [Peptide M5-6] | confirmed | –
55 | CTVTRSTINDPQRAKEALDKYE [Peptide M5-8] | confirmed | –
56 | CVPVKKEATKLSEAELYNKIQ [st2967-2] | confirmed | –
